According to the NIST ThermoML archive (doi:10.1016/j.jct.2014.06.029):
Numbers after ± are expanded uncertainties.

What was measured:
[1] = refractive index (Na D-line) (dimensionless); mn = molality of the nth substance listed, in mol/kg; conditions: 293.15 K; 101 kPa; Liquid; Standard Abbe refractometry; m1 = 0.02
[2] = 298 K; 101.33 kPa; Crystal; X-ray diffraction

## CC(=O)C(=O)[O-].[Na+] [sodium pyruvate] + O
[1]
  refractive index: 1.3308 ± 0.0007

## CC(=O)C(=O)[O-].[Na+] [sodium pyruvate]
[2]
  mass density: 1749 ± 9 kg/m3
